Test results: ChEMBL document CHEMBL1201862, “PubChem BioAssay data set” (2004)
The source made the active and inactive calls.

Columns and labels:
[1] = target: T1, Short transient receptor potential channel 4 (Mus musculus, UniProt Q9QUQ5); test: mouse TRPC4 channel inhibitors, dose response, cell-based, HEK293 TRPC4/mu-opioid, Fluo-4 calcium (AID 434942); assay type: functional;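 note: potency of inhibitors blocking the TRPC4 calcium response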
T1 sequence (Q9QUQ5 whole entry): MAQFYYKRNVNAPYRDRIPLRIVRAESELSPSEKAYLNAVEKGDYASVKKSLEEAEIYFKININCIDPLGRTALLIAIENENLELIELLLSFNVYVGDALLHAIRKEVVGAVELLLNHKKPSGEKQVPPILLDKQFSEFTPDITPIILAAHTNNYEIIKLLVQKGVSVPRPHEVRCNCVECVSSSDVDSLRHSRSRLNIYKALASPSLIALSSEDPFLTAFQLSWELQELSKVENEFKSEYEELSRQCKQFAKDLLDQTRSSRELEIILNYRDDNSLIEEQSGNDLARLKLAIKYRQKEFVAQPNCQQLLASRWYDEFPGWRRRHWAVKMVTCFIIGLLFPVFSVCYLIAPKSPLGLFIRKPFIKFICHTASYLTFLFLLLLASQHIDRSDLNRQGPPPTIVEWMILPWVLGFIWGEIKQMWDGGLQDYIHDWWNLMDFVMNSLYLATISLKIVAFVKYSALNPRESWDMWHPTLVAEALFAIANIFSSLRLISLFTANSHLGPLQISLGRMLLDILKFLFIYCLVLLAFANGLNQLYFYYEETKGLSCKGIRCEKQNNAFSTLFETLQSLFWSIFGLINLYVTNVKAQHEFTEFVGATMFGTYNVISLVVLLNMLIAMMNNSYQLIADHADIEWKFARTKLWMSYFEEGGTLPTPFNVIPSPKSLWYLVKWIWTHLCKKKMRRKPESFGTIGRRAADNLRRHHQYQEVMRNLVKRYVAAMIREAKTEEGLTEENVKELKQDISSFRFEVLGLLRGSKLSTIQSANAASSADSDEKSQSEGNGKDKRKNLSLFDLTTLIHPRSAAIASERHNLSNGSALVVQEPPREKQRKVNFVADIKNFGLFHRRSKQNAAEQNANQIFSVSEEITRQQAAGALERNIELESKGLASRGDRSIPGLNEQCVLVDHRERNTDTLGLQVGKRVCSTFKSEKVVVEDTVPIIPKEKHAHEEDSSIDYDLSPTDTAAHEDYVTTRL

[2] = target: T1, Short transient receptor potential channel 4; test: mouse TRPC4 channel activators, dose response, cell-based, HEK293 TRPC4/mu-opioid, Fluo-4 calcium (AID 434937); assay type: functional
Coagulation factor XII = target: T2, Coagulation factor XII (Homo sapiens, UniProt P00748); assay type: functional;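 note: activated factor XIIa alpha cleaving a fluorogenic AMC peptide substrate; inhibitor potency from loss of enzyme activity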
T2 sequence (P00748 whole entry): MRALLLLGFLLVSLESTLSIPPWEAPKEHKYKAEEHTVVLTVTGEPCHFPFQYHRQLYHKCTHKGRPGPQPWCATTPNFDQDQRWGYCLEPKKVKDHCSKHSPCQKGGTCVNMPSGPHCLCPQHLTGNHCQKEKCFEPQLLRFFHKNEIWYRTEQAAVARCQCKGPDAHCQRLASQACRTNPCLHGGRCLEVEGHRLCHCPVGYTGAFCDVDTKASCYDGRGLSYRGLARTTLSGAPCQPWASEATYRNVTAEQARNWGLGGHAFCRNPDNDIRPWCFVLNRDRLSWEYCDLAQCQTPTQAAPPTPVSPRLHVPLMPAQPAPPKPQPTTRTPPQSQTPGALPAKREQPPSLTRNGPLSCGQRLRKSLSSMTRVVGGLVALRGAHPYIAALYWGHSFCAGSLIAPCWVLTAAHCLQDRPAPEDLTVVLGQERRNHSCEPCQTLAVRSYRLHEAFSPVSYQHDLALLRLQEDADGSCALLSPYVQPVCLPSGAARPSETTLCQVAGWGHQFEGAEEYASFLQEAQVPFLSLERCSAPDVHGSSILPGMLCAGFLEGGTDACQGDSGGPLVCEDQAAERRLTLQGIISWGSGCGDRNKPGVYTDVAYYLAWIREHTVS

cells = assay type: functional
[3] = target: T3, Alkaline phosphatase, tissue-nonspecific isozyme (Homo sapiens, UniProt P05186); test: human TNAP enzyme inhibitors, SAR follow-up, biochemical, luminescent, dose response (AID 1056)
T3 sequence (P05186 whole entry): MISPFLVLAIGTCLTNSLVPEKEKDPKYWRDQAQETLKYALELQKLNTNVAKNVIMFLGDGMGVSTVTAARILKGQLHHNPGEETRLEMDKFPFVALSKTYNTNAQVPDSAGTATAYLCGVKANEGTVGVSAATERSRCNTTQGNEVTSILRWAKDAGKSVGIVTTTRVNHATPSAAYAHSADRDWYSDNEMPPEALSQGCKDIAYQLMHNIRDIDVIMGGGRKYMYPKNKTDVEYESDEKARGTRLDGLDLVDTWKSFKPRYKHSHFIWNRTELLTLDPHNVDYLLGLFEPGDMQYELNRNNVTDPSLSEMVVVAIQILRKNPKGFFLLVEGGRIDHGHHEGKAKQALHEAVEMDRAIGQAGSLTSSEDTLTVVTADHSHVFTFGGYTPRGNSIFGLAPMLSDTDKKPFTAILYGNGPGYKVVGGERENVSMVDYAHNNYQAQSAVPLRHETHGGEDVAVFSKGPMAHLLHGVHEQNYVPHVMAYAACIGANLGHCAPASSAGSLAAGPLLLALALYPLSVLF

Cytochrome P450 3A4 = Cytochrome P450 3A4 (Homo sapiens, UniProt P08684);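 note: CYP3A4 tested as one member of a cytochrome P450 panel screen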
Cytochrome P450 1A2 = target: T4, Cytochrome P450 1A2 (Homo sapiens, UniProt P05177);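 note: PubChem cytochrome P450 panel assay, CYP1A2 panel member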
T4 sequence (P05177 whole entry): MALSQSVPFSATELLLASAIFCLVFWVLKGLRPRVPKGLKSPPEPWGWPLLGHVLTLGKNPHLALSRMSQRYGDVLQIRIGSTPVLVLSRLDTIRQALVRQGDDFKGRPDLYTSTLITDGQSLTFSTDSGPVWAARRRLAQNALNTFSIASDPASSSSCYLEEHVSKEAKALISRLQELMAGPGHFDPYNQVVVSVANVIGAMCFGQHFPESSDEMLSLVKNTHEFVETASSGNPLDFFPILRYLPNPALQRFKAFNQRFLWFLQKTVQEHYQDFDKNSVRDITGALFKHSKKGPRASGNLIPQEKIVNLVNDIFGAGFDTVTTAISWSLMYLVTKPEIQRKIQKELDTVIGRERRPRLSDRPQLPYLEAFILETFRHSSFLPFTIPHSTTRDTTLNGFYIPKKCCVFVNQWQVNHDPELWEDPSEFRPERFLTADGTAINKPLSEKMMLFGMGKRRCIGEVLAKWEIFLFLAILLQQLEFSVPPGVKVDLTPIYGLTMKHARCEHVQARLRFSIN

[4] = microbe, parasite or virus in culture; assay type: functional; conditions: Mycobacterium tuberculosis
[5] = THP-1 cell cytotoxicity, dose response, cytotoxicity control for non-replicating M. tuberculosis project (AID 489025); assay type: functional
[6] = Vero E6 cell cytotoxicity, dose response, cytotoxicity control for non-replicating M. tuberculosis project, secondary assay (AID 492998); assay type: functional, VeroE6; conditions: Vero C1008
[7] = target: T5, Neuropeptides B/W receptor type 1 (Homo sapiens, UniProt P48145); test: Fluorescence-based dose response cell-based high throughput screening assay to identify antagonists of the G-protein coupled receptor 7 (GPR7). [Related pubchem assays: 1952 (Screening assay (GPR7 antagonists).), 1880 (Summary AID.)]; assay type: functional
T5 sequence (P48145 whole entry): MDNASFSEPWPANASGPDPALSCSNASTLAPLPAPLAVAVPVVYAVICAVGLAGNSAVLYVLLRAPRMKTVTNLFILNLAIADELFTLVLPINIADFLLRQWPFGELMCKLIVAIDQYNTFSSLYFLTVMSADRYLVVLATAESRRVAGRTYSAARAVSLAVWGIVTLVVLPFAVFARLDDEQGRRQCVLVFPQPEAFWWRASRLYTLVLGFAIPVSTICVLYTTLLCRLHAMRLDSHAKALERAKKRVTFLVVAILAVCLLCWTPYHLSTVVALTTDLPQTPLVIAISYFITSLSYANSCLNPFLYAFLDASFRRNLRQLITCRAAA

[8] = target: Melanin-concentrating hormone receptor 1 (Homo sapiens, UniProt Q99705); test: Fluorescence-based counterscreen for antagonists of the G-protein coupled receptor 7 (GPR7): cell-based high throughput dose response assay to identify antagonists of the melanin-concentrating hormone receptor 1 (MCHR1).; assay type: functional
[9] = target: Glyceraldehyde-3-phosphate dehydrogenase (Homo sapiens, UniProt P04406)
[10] = inhibitors of firefly luciferase expression or activity, dose response, H4 neuroglioma cells, luminescence (AID 1990); assay type: functional, cell-based
[11] = Luminescence Cell-Based Dose Response HTS to Identify Inhibitors of 5'UTR Stem-Loop Driven Prion Protein mRNA Translation in H4 Neuroglioblastoma Cells. [Related pubchem assays: 1827 (Project Summary), 1813 (Primary HTS)]; assay type: functional
[12] = inhibitors of SNCA 5'UTR-driven reporter translation, confirmation, H4 neuroglioma cells, luminescence (AID 1988); assay type: functional, cell-based
[13] = Shn3 3'UTR reporter inhibitors, dose response, cell-based, Clone20 osteoblasts, firefly luciferase, cherry-picked (AID 624132); assay type: functional;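 note: firefly luciferase luminescence from reporter carrying the Shn3 3'UTR in osteoblasts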
[14] = HepG2 cell cytotoxicity, dose response, cytotoxicity control for Shn3 inhibitor project, CellTiter-Glo, cherry-picked (AID 624134); assay type: functional, cell-based
[15] = control 3'UTR Renilla luciferase suppression, dose response, counter-screen for Shn3 inhibitor project, cell-based, Clone20-Shn3RL, cherry-picked (AID 624133); assay type: functional
Protein Wnt-3a = Protein Wnt-3a (Mus musculus, UniProt P27467); test: Wnt3a-driven reporter signaling inhibition, dose response, selectivity assay for Gli-SUFU antagonist project, Wnt-LIGHT cells, luminescence (AID 651570); assay type: functional; conditions: read-out: IC50_Mean;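 note: Wnt-LIGHT reporter cells stimulated with conditioned medium from Wnt3a-producing cells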
HEK293 [16] = test: NOD1 signaling inhibitors, primary screen, cell-based, luminescence, uHTS (AID 1578); assay type: functional; conditions: Homo sapiens
HEK293 [17] = test: cells; assay type: functional, cell-based; conditions: Homo sapiens
HEK293 [18] = test: cells; assay type: functional, cell-based; conditions: Homo sapiens; remark: listed apart in the source
[19] = target: Nucleotide-binding oligomerization domain-containing protein 2 (Homo sapiens, UniProt Q9HC29); test: NOD2 signaling inhibitors, cell-based, luminescence, uHTS, HEK293 (AID 1566); assay type: functional
HEK293 [20] = test: NOD2 signaling inhibitors in MDP-stimulated cells, cell-based, uHTS, luminescence (AID 2001); assay type: functional; conditions: Homo sapiens
HEK293 [21] = test: cells; assay type: functional, cell-based; conditions: Homo sapiens; remark: listed apart in the source
[22] = Luminescence Cell-Based Dose Retest to Confirm Inhibitors of Cancer Stem Cells. [Related pubchem assays (depositor defined):AID2717, AID2721]; assay type: functional; conditions: Homo sapiens
INS1 = test: beta cell apoptosis inhibitors, cytokine rescue, dose response, luminescence, retest (AID 449756); assay type: functional, cell-based; conditions: Rattus norvegicus;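 note: cell death triggered by IL-1 beta plus TNF-alpha plus IFN-gamma mixture; protective hits raise ATP signal compared with cytokine alone wells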

Cytochrome P450 3A4, sequence (P08684 whole entry): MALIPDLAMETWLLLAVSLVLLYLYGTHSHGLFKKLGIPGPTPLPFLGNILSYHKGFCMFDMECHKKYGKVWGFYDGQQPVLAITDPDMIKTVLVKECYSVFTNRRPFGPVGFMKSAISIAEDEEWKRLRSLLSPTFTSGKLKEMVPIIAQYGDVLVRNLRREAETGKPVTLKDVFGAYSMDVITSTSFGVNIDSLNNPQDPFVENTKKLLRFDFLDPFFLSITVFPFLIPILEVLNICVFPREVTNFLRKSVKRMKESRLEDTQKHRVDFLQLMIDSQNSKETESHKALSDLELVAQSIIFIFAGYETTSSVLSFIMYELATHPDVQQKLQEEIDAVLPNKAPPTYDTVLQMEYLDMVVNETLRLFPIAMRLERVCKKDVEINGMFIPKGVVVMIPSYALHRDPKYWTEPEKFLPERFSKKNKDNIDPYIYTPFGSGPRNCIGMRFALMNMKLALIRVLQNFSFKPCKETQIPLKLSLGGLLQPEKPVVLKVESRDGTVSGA
Melanin-concentrating hormone receptor 1, sequence (Q99705 whole entry): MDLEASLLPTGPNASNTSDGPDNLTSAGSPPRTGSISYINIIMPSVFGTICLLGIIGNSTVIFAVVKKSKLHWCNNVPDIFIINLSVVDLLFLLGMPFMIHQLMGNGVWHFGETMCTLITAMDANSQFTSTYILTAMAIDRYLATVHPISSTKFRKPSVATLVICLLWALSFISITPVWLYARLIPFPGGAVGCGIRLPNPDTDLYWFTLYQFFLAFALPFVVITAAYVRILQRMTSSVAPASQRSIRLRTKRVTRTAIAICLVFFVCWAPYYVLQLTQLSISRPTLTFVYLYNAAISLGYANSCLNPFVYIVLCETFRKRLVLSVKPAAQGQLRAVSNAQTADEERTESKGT
Nucleotide-binding oligomerization domain-containing protein 2, sequence (Q9HC29 whole entry, the tested form may be a part): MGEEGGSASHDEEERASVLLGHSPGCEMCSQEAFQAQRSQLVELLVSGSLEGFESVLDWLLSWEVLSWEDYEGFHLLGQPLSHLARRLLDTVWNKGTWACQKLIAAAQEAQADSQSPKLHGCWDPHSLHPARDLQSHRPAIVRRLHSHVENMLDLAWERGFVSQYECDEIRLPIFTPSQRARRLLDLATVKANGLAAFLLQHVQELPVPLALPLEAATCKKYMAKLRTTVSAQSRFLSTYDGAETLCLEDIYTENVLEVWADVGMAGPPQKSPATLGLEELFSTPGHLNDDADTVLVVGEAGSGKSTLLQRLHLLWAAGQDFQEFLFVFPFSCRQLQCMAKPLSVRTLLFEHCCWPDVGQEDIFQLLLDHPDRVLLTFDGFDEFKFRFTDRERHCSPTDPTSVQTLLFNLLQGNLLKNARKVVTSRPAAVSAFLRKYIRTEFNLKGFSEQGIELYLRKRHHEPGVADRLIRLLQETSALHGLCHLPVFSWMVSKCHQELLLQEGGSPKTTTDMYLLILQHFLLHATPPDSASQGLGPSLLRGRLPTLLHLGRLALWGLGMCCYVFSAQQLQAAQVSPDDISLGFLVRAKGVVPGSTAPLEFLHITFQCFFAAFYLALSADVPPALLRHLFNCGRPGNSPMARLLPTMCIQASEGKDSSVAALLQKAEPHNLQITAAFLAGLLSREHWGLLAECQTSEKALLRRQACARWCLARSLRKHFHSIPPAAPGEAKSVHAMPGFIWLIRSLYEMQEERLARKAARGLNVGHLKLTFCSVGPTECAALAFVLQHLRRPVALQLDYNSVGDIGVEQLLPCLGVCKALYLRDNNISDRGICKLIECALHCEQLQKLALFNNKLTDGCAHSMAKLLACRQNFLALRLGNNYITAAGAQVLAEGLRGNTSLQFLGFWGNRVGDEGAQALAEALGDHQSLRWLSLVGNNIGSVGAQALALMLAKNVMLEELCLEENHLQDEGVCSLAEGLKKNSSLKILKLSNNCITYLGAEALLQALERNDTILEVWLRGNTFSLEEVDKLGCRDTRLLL
Glyceraldehyde-3-phosphate dehydrogenase, sequence (P04406 whole entry): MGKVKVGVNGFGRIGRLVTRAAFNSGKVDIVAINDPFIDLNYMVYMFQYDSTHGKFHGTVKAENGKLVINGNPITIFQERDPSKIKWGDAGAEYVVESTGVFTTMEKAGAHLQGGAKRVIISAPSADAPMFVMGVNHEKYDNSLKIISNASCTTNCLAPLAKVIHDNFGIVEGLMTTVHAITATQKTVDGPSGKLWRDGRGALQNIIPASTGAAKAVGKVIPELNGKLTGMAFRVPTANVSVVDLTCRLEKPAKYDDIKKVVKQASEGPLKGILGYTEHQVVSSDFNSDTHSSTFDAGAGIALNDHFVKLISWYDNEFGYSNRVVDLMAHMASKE
Protein Wnt-3a, sequence (P27467 whole entry): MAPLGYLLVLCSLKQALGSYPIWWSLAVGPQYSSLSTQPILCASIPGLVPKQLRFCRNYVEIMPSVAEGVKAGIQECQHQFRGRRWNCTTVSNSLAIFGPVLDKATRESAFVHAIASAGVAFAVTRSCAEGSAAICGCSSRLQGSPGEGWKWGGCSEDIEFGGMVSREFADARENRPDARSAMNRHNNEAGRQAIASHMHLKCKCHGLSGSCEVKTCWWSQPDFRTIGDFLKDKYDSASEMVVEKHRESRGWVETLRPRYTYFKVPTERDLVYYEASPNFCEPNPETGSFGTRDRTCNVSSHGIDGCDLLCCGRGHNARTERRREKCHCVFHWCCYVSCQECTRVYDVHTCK

CC1CCCN(CCOCCOc2ccccc2-c2ccccc2)C1 (centres undefined)
EC50 [1]: 0.335 µM (active)
EC50 [2]: 0.421 µM (active)

O=[N+]([O-])c1cncc([N+](=O)[O-])c1Nc1ccccc1Cl
IC50 (Coagulation factor XII): > 50 µM (inactive)
IC50 (cells): 8.86 µM (active)

COC(=O)c1ccc(Nc2nc(C)cc(=O)[nH]2)cc1
IC50 (Coagulation factor XII): > 50 µM (inactive)

CCOc1ccc(C(C)(C)C)cc1S(=O)(=O)Nc1cccnc1
IC50 [3]: 12.5 µM (active)

N#Cc1cccc(NC(=O)N2CCC3(CC2)CCN(C(=O)c2cccc(F)c2)CC3)c1
AC50 (Cytochrome P450 3A4): inconclusive

O=C(Nc1ccccc1)N1CCC2(CC1)CCN(C(=O)c1cccc(F)c1)CC2
AC50 (Cytochrome P450 1A2): 10 µM (inconclusive)
AC50 (Cytochrome P450 3A4): inconclusive

CCCCn1c(=O)c(C(=O)Nc2ncccc2C)c(O)c2ccccc21
CC50 [4]: 29.3 µM (active)
CC50 [5]: > 40 µM (active)
CC50 [6]: > 20 µM (active)
IC50 (cells): 17.3 µM (active)

COc1ccc2c(c1)CCc1c(C(=O)NCc3ccc(F)cc3)noc1-2
IC50 (Coagulation factor XII): 3.61 µM (active)

O=c1c(-c2ccc(Cl)cc2)nc2cnc(N3CCOCC3)nc2n1CCc1ccccc1
AC50 (Cytochrome P450 1A2): 2 µM (inconclusive)
AC50 (Cytochrome P450 3A4): inconclusive

O=C(Nc1ccccc1Cl)C1CC(=O)N(c2ccccc2)C1 (centres undefined)
IC50 (Coagulation factor XII): > 50 µM (inactive)

CCCCn1c(N)c(N(CC(C)C)C(=O)c2ccc(COc3ccccc3)o2)c(=O)[nH]c1=O
IC50 [7]: > 43.8 µM (not active)
IC50 [8]: > 43.8 µM (not active)

COc1ccc(S(=O)(=O)Nc2ccc3ccccc3c2)cc1OC
IC50 [9]: > 100 µM (not active)
IC50 [3]: > 100 µM (inactive)

COc1ccccc1NS(=O)(=O)c1cccc(C(=O)NC2CCN(Cc3ccccc3)CC2)c1
EC50 [10]: > 120 µM (not active)
EC50 [11]: > 120 µM (not active)
EC50 [12]: > 120 µM (not active)
EC50 [1]: 0.376 µM (active)
EC50 [2]: 0.944 µM (active)
AC50 [13]: 1.95 µM (active)
AC50 [14]: 0.52 µM (active)
AC50 [15]: 1.8 µM (active)
IC50 (Protein Wnt-3a): 4.3 µM (active)

CC(C)(C)C1CCC2(CC1)C(C#N)=C(SCC(=O)NC1CCCCC1)NC(=O)C2C#N (centres undefined)
EC50 (HEK293 [16]): 6.58 µM (active)
IC50 (HEK293 [17]): 9.32 µM (active)
IC50 (HEK293 [18]): 13.6 µM (active)
EC50 [19]: 17.6 µM (active)
IC50 (HEK293 [20]): 9.18 µM (active)
IC50 (HEK293 [21]): > 20 µM (inactive)
AC50 [22]: 6.34 µM (active)
AC50 (INS1): 8.73 µM (active)

CCc1ccc(N(C(=O)c2csnn2)C(C(=O)NC2CCCCC2)c2ccncc2)cc1 (centres undefined)
IC50 [7]: > 43.8 µM (not active)
IC50 [8]: > 43.8 µM (not active)

CCN(CC(=O)Nc1cccc(C#N)c1)CC(=O)Nc1cccc(OC)c1
IC50 [7]: > 43.8 µM (not active)
IC50 [8]: 27.9 µM (not active)

CCCCC(c1nnnn1C1CCCC1)N1CCN(C2CCCCC2)CC1 (centres undefined)
IC50 [7]: > 43.8 µM (not active)
IC50 [8]: > 43.8 µM (not active)
